Experimental data published in paper PMC6453916, “Radical-mediated C-S bond cleavage in C2 sulfonate degradation by anaerobic bacteria” (Nature Communications, 2019).

Tests used:
[1] = target: T1, DpIseK (substrate-binding subunit of the IseG-associated TRAP transporter) (Desulfovibrio piger, UniProt A0A1K1LFE7); assay: isothermal titration calorimetry
T1 construct: gene DESPIGER_1592; soluble periplasmic subunit, codon-optimised, expressed as His6-MBP-TEV fusion; MBP tag cleaved and removed before ITC
T1 sequence (A0A1K1LFE7 24-332): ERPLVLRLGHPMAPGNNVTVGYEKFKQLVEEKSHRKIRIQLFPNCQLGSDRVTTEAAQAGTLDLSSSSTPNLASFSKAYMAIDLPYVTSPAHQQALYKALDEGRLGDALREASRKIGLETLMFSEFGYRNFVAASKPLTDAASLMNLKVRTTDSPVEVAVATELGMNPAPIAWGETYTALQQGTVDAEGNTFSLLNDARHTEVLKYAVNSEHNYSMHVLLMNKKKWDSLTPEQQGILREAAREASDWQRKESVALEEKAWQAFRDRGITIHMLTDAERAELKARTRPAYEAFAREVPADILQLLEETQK

[2] = target: IseG (−23 a.a.), isethionate sulfo-lyase from Desulfovibrio vulgaris Hildenborough with an N-terminal 23-a.a. truncation (Desulfovibrio vulgaris Hildenborough) (UniProt Q727N1); assay: SEC; 2.5 mg/mL IseG (−23 a.a.), 2 mL on a Superdex 200 column (300 mL), buffer D (10 mM HEPES/KOH pH 7.4, 250 mM KCl, 10 mM BME), 3 mL/min; mass from elution volume against molecular weight markers (observed 196 kDa, monomer calculated 91.3 kDa)
[3] = target: T2, TauF (BwTauF, sulfoacetaldehyde reductase) (Bilophila wadsworthia, UniProt E5Y946); assay: NADH oxidation at […] nm; format: biochemical; details: 5 mM sulfoacetaldehyde (introduced as bisulfite adduct), 0.5 mM NADH, 0.1 M Tris pH 7.5, 0.1 M KCl
T2 construct: gene sarD; codon-optimised, His6-TEV (HT) vector, E. coli
T2 sequence (E5Y946 1-387): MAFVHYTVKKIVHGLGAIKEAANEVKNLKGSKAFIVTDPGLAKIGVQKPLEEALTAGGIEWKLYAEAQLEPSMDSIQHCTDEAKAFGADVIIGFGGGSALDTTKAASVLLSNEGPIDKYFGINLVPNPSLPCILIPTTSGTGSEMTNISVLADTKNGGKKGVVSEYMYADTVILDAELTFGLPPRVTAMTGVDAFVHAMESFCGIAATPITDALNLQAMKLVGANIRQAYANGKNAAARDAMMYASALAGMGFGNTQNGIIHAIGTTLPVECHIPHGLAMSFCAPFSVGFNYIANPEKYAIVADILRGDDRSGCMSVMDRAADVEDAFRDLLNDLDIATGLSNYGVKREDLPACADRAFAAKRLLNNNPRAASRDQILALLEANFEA

[4] = substrate: O=S(=O)(O)CCO; assay: purified protein; format: biochemical, Nitratidesulfovibrio vulgaris; details: IseG activated by IseH, SAM and Ti(III) citrate; anaerobic, room temperature, 250 nM IseG

## O=S(=O)(O)CCO [isethionate]
[1]
  Kd: 500 nM

## IseG (−23 a.a.), isethionate sulfo-lyase from Desulfovibrio vulgaris Hildenborough with an N-terminal 23-a.a. truncation (from UniProt Q727N1 24-828) (enzyme)
[2]
  stoichiometry N: 2

## O=CCS(=O)(=O)O [sulfoacetaldehyde]
[3]
  NADH oxidation at 340 nm: TauF, catalyzed NADH-dependent reduction of sulfoacetaldehyde

## NC(=O)C1=CN([C@@H]2O[C@H](COP(=O)(O)OP(=O)(O)OC[C@H]3O[C@@H](n4cnc5c(N)ncnc54)[C@H](O)[C@@H]3O)[C@@H](O)[C@H]2O)C=CC1 [NADH]
[3]
  NADH oxidation at 340 nm: demonstrates that BwTauF is a sulfoacetaldehyde reductase

B1: IseG (GUF, isethionate sulfo-lyase) (Nitratidesulfovibrio vulgaris str. Hildenborough) (protein)
chain: MQCCNQLSPHEQRLQDKIEGKVDRYRATHERVFTILESFDNTRPRIDVERAKYFTESMKATEGQPLPLRWAKALMHIAENMTVYIDDHQLICGRAGYQGRYGVLYPELDGDFLGTAIEDLPNRAESPFAITPEDARVVVEEIAPFWKGKTYHEALNLALPADVHKLTYDDPQGLMSRFIVNETSSFRSSIQWVHDYEKVLKRGFRSIKEEALEKIAALDPMSPCDNVEKRPFLEAIVIVCDAIILWAKRHAKLAAELAAKETDPTRKRELETMAEICAWVPENPARTFHEAVQAQWFTQVFSRIEQKTGTIVSNGRMDQYFWPFYEKDLAEGRITEDSALELLECMWVGMAQYVDLYISPTGGAFNEGYAHWEAVTIGGQTPEGRDATNDLTYLFLKSKREFPLHYPDLAARIHSRSPERYLWEVAETIKDGSGFPKLINDEEVVPLYVSKGATFAEALDYAVSGCTEARMPNRDTYTSGGAYINFAAALEMVLYNGKMLKYGDTDLGAHTGDPCEFKTWEEFWNAYVTQHHLFLKTAFVQQHIINNLRARHFAQPMGSSLHDLCMKHCLDLHTPQIPEGINLGYFEYMGFGTVVDSLSAIKKLVFEDKKLTMGELIEALKCNFEGKEDIQQLLKSAPCYGNNDDYADSIARDIDALSVKYGRRYSPELGMHNDVRYVPFTSHVPFGRVVSATPNGRKAWSALSDGSSASHGADVNGPTAILQSNFNSKNYGMRDRAARMLNIKFTPKCVEGEEGSQKLVSFIRTFCDLKLWHVQFNVINKETLLAAQRDPEKYRNLIVRIAGYSAYFVDLSPDLQNDLIARTGHDVM
notes: pET-28a(+)-His6-IseG, codon-optimised, full length, His tag kept, E. coli BL21(DE3); dimer; glycyl radical installed by IseH/SAM/Ti(III) citrate
[4]
  Km: 44.8 ± 3.5 mM
  kcat: 91.6 ± 3.3 s⁻¹
